From patent US4474945A, “Anthracycline antibiotics” (priority 1981, dated 1984)
≈ marks a conversion by molar mass, not a printed value. Like-named read-outs stand apart in the source and are kept apart here.

Experiments:
[1] = test system: RNA synthesis in L1210 cells; experiment: RNA synthesis inhibition in cultured L1210 cells (14C-uridine incorporation); type: cell-based, mouse; details: for IC50: Mus musculus, 1 h, cultured L1210 cells, 14C-uridine, 60 minutes, 10% calf serum, 37° C., read-out: 50% Inhibition concentration (IC50), RNA synthesis inhibition
Method: (§1) Fifteen minutes after the anthracycline compounds of the present invention were added at varied concentrations, 0.05 μCi/ml (final concentration) of ^14 C-uridine or ^14 C-thymidine was added and cultivated at 37° C. for a further 60 minutes. The incorporation of the radioactive base was stopped by addition of 10% trichloroacetic acid. The acid-insoluble matters were recovered; washed three times with 10-5% trichloroacetic acid; and dissolved in formic acid.

[2] = test system: mouse leukemia cells L1210; experiment: Growth inhibition of cultured L1210 cells; type: cell-based; details: for IC50: Mus musculus; for inhibition of growth and nucleic acid synthesis of L1210 cells (in words): mouse leukemia cells L1210
Method: For determination of the 50% growth inhibition concentration (IC50), 5×10^4 L1210 cells/ml (final concentration) were inoculated into RPMI 1640 medium (Rosewell Park Memorial Institutes 1640 medium) containing 20% calf serum. The anthracycline compounds of the present invention were added to give a final concentrations from 0.01 μg/ml to 0.25 μg/ml, while the control contained no drug. After incubation at 37° C. in a carbon dioxide incubator, the cell counts of the test and control cultures were measured for calculation of the IC50 concentration of antibiotic.

Mice = experiment: Acute toxicity, mice, i.p.
[3] = test system: DNA synthesis in L1210 cells; experiment: DNA synthesis inhibition in cultured L1210 cells (14C-thymidine incorporation); type: cell-based; details: Mus musculus, 1 h, 60 minutes, 10% calf serum, 37° C., read-out: 50% Inhibition concentration (IC50), DNA synthesis inhibition
Method: as §1

L1210 leukemia = experiment: Therapeutic effect (survival prolongation) on CDF1 mice bearing L1210 leukemia; type: in vivo, mouse (CDF1 mice); details: for Survival prolongation rate (T/C %): L1210-bearing CDF1 mice, i.p. every day for 10 days, control = 100; for survival prolongation effect (in words): mice transplanted with leukemia cells
Method: The therapeutic effect of 2-hydroxyaclacinomycin B was studied on CDF1 mice bearing L1210 leukemia. From 24 hours after 1×10^5 L1210 cells/animal were intraperitoneally transplanted to CDF1 mice, 2-hydroxyaclacinomycin B was intraperitoneally given everyday for 10 days. The prolongation of the survival time was calculated relative to the control animals receiving physiological saline as 100. Table 1 compares the in vitro and in vivo activities and toxicities of 2-hydroxyaclacinomycins A, B, and N and aclacinomycin A.

[4] = compared with aclacinomycin A; European Publication No. 30255; cited from earlier work
[5] = cited from earlier work
[6] = cultured L1210 cells, RPMI 1640 with 20% calf serum, 37° C., read-out: 50% Inhibition concentration (IC50), growth inhibition

CCC1(O)CC(OC2CC(N(C)C)C(OC3CC4OC5CC(=O)C(C)OC5OC4C(C)O3)C(C)O2)c2c(cc3c(c2O)C(=O)c2c(O)cc(O)cc2C3=O)C1C(=O)OC (centres unmarked) [2-Hydroxyaclacinomycin B, 2-hydroxyaclacinomycin B]
IC50 [1]: 0.22 µg/mL (≈ 0.266 µM) | RNA synthesis versus DNA synthesis inhibition (in words) [1]: inhibit RNA synthesis more specifically than DNA synthesis | killing of mouse leukemia cells L1210 (in words) [2]: kill mouse leukemia cells L1210 at a low concentration | IC50 ([2]; L1210, read-out: 50% Inhibition concentration (IC50), growth inhibition): 0.03 µg/mL (≈ 0.0363 µM) | inhibition of growth and nucleic acid synthesis of L1210 cells (in words) [2]: markedly inhibit the growth and the nucleic acid synthesis | Toxicity (acute) (Mice): 50.0 | IC50 [3]: 1 µg/mL (≈ 1.21 µM) | Survival prolongation rate (T/C %) (L1210 leukemia; dose 0.63 mg/kg): 110% | Survival prolongation rate (T/C %) (L1210 leukemia; dose 1.25 mg/kg): 131% | Survival prolongation rate (T/C %) (L1210 leukemia; dose 2.5 mg/kg): 153% | Survival prolongation rate (T/C %) (L1210 leukemia; dose 5 mg/kg): 200% | Survival prolongation rate (T/C %) (L1210 leukemia; dose 7.5 mg/kg): 226% | Survival prolongation rate (T/C %) (L1210 leukemia; dose 10 mg/kg): 139% | Survival prolongation rate (T/C %) (L1210 leukemia; dose 12 mg/kg): 113% | survival prolongation effect (in words) (L1210 leukemia): excellent survival prolongation effect | antitumor activity (in words) (L1210 leukemia; mouse, in vivo): marked antitumor activity

CCC1(O)CC(OC2CC(N(C)C)C(OC3CC(O)C(OC4CCC(O)C(C)O4)C(C)O3)C(C)O2)c2c(cc3c(c2O)C(=O)c2c(O)cc(O)cc2C3=O)C1C(=O)OC (centres unmarked) [2-Hydroxyaclacinomycin N, 2-hydroxyaclacinomycin N]
IC50 [1]: 0.18 µg/mL (≈ 0.217 µM) | RNA synthesis versus DNA synthesis inhibition (in words) [1]: inhibit RNA synthesis more specifically than DNA synthesis | killing of mouse leukemia cells L1210 (in words) [2]: kill mouse leukemia cells L1210 at a low concentration | IC50 [2, 6]: 0.04 µg/mL (≈ 0.0482 µM) | inhibition of growth and nucleic acid synthesis of L1210 cells (in words) [2]: markedly inhibit the growth and the nucleic acid synthesis | Toxicity (acute) (Mice): 45.7 | IC50 [3]: 1.18 µg/mL (≈ 1.42 µM) | Survival prolongation rate (T/C %) (L1210 leukemia; dose 0.63 mg/kg): 109% | Survival prolongation rate (T/C %) (L1210 leukemia; dose 1.25 mg/kg): 128% | Survival prolongation rate (T/C %) (L1210 leukemia; dose 2.5 mg/kg): 148% | Survival prolongation rate (T/C %) (L1210 leukemia; dose 5 mg/kg): 202% | Survival prolongation rate (T/C %) (L1210 leukemia; dose 7.5 mg/kg): 219% | Survival prolongation rate (T/C %) (L1210 leukemia; dose 10 mg/kg): 144% | Survival prolongation rate (T/C %) (L1210 leukemia; dose 12 mg/kg): 108% | survival prolongation effect (in words) (L1210 leukemia): excellent survival prolongation effect

CCC1(O)CC(OC2CC(N(C)C)C(OC3CC(O)C(OC4CCC(=O)C(C)O4)C(C)O3)C(C)O2)c2c(cc3c(c2O)C(=O)c2c(O)cc(O)cc2C3=O)C1C(=O)OC (centres unmarked) [2-Hydroxyaclacinomycin A]
IC50 [1]: 0.14 µg/mL (≈ 0.169 µM) | RNA synthesis versus DNA synthesis inhibition (in words) [1]: inhibit RNA synthesis more specifically than DNA synthesis | killing of mouse leukemia cells L1210 (in words) [2]: kill mouse leukemia cells L1210 at a low concentration | IC50 [2, 6]: 0.04 µg/mL (≈ 0.0483 µM) | inhibition of growth and nucleic acid synthesis of L1210 cells (in words) [2]: markedly inhibit the growth and the nucleic acid synthesis | Toxicity (acute) (Mice): 50.0 | antitumor activity (in words) [4]: stronger antitumor activity | cardio-toxicity (in words) ([5]; compared with aclacinomycin A, European Publication No. 30255): less cardio-toxic, than aclacinomycin A | IC50 [3]: 0.85 µg/mL (≈ 1.03 µM) | Survival prolongation rate (T/C %) (L1210 leukemia; dose 0.63 mg/kg): 124% | Survival prolongation rate (T/C %) (L1210 leukemia; dose 1.25 mg/kg): 148% | Survival prolongation rate (T/C %) (L1210 leukemia; dose 2.5 mg/kg): 176% | Survival prolongation rate (T/C %) (L1210 leukemia; dose 5 mg/kg): 218% | Survival prolongation rate (T/C %) (L1210 leukemia; dose 7.5 mg/kg): 220% | Survival prolongation rate (T/C %) (L1210 leukemia; dose 10 mg/kg): 158% | Survival prolongation rate (T/C %) (L1210 leukemia; dose 12 mg/kg): 120% | survival prolongation effect (in words) (L1210 leukemia): excellent survival prolongation effect

CCC1(O)CC(OC2CC(N(C)C)C(OC3CC(O)C(OC4CCC(=O)C(C)O4)C(C)O3)C(C)O2)c2c(cc3c(c2O)C(=O)c2c(O)cccc2C3=O)C1C(=O)OC (centres unmarked) [Aclacinomycin A, reference compound]
IC50 [1]: 0.04 µg/mL (≈ 0.0493 µM) | IC50 [2, 6]: 0.01 µg/mL (≈ 0.0123 µM) | Toxicity (acute) (Mice): 22.6 | toxicity and cardio-toxicity among hitherto-developed anthracycline antibiotics (in words) ([5]; compared with hitherto-developed anthracycline antibiotics): the least toxic and cardio-toxic among the hitherto-developed anthracycline antibiotics | IC50 [3]: 0.3 µg/mL (≈ 0.37 µM) | Survival prolongation rate (T/C %) (L1210 leukemia; dose 0.63 mg/kg): 107% | Survival prolongation rate (T/C %) (L1210 leukemia; dose 1.25 mg/kg): 125% | Survival prolongation rate (T/C %) (L1210 leukemia; dose 2.5 mg/kg): 186% | Survival prolongation rate (T/C %) (L1210 leukemia; dose 5 mg/kg): 196% | Survival prolongation rate (T/C %) (L1210 leukemia; dose 7.5 mg/kg): 123% | Survival prolongation rate (T/C %) (L1210 leukemia; dose 10 mg/kg): Toxic
